Test system: ABCA1 mRNA
Test: ABCA1 mRNA induction in THP-1 cells, QuantiGene branched DNA assay
Format: cell-based
Details: 10 μM test compound, 18-20 hours; for fold induction at 10 µM: Homo sapiens, read-out: ABCA1 Induction Fold Increase over DMSO Vehicle
In short: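 THP-1 cells, grown to subconfluence, treated with compounds at 10 and 3 μM in DMEM/BSA for 18–20 h. Lysates hybridized with ABCA1-specific probe 16–18 h at 53 °C; QuantiGene branched DNA luminescence gives fold increase over DMSO.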

| Compound | fold induction at 10 µM | ABCA1 Induction Fold Increase over DMSO Vehicle |
| --- | --- | --- |
| CCOP(=O)(Cc1ccc2c(c1)C(C)(C)C1COc3cccc(OC)c3C1N2)OCC (stereo not shown) [Number 180, diethyl(6a,7,12,12a-tetrahydro-1-methoxy-7,7-dimethyl-6H-chromeno[4,3-b]quinolin-9-yl)methylphosphonate] | 2.2 | – |
| CCOP(=O)(Cc1ccc2c(c1)C(C)(C)[C@H]1COc3c(OC)cc(-c4cn[nH]c4)cc3[C@H]1N2)OCC [Number 181, diethyl((6aR,12aS)-6a,7,12,12a-tetrahydro-4-methoxy-7,7-dimethyl-2-(1H-pyrazol-4-yl)-6H-chromeno[4,3-b]quinolin-9-yl)methylphosphonate] | 4.9 | – |
| COc1cc(-c2cn[nH]c2)cc2c1OC[C@H]1[C@@H]2Nc2ccc(C#N)cc2C1(C)C [Number 182, (6aR,12aS)-6a,7,12,12a-tetrahydro-4-methoxy-7,7-dimethyl-2-(1H-pyrazol-4-yl)-6H-chromeno[4,3-b]quinoline-9-carbonitrile] | 4.6 | – |
| methylethyl 3-(4-methoxy-7,7-dimethyl-7,12-dihydro-6H-chromeno[4,3-b]quinolin-9-yl)benzoate [Number 61] | – | 2.0 FOLD INCREASE |
